{"source": "PubChem BioAssay (NCI)", "assay_in_all_cases": "growth of human tumour cells (NCI), 48 h", "key": {"[1]": {"system": "KM12 colon"}, "[2]": {"system": "COLO 205 colon"}, "[3]": {"system": "T-47D breast"}, "[4]": {"system": "SNB-75 CNS"}, "[5]": {"system": "SNB-19 CNS"}, "[6]": {"system": "SF-268 CNS"}, "[7]": {"system": "NCI-H522 lung"}, "[8]": {"system": "SK-OV-3 ovarian"}, "[9]": {"system": "SK-MEL-5 melanoma"}, "[10]": {"system": "UACC-62 melanoma"}, "[11]": {"system": "HS 578T breast"}, "[12]": {"system": "HCC-2998 colon"}, "[13]": {"system": "CAKI-1 renal"}, "[14]": {"system": "HT29 colon"}, "[15]": {"system": "SF-539 CNS"}, "[16]": {"system": "RXF 393 renal"}, "[17]": {"system": "OVCAR-5 ovarian"}, "[18]": {"system": "HOP-92 NSCLC"}, "[19]": {"system": "TK-10 renal"}, "[20]": {"system": "HCT-116 colon"}, "[21]": {"system": "A498 renal"}, "[22]": {"system": "U251 CNS"}, "[23]": {"system": "EKVX NSCLC"}, "[24]": {"system": "LOX IMVI melanoma"}, "[25]": {"system": "HL-60(TB) leukemia"}, "[26]": {"system": "SR leukemia"}, "[27]": {"system": "HCT-15 colon"}, "[28]": {"system": "PC-3 prostate"}, "[29]": {"system": "NCI-H460 lung"}, "[30]": {"system": "ACHN renal"}, "[31]": {"system": "HOP-62 NSCLC"}, "[32]": {"system": "DU-145 prostate"}, "[33]": {"system": "SF-295 CNS"}, "[34]": {"system": "MALME-3M melanoma"}, "[35]": {"system": "SK-MEL-2 melanoma"}, "[36]": {"system": "MDA-MB-435"}, "[37]": {"system": "MDA-MB-231 breast"}, "[38]": {"system": "MOLT-4 leukemia"}, "[39]": {"system": "MCF7 breast"}, "[40]": {"system": "RPMI-8226 leukemia"}, "[41]": {"system": "UACC-257 melanoma"}, "[42]": {"system": "M14 melanoma"}, "[43]": {"system": "BT-549 breast"}, "[44]": {"system": "CCRF-CEM leukemia"}, "[45]": {"system": "A549 NSCLC"}, "[46]": {"system": "IGROV1 ovarian"}, "[47]": {"system": "786-0 renal"}, "[48]": {"system": "K-562 leukemia"}}, "note": "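Cells were grown in 96-well plates and exposed to each compound for 48 hours at five concentrations; endpoints were interpolated linearly between bracketing concentrations, or set to the highest concentration if not reached. At the GI50, growth is halved. The concentration for full growth arrest is given as TGI.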", "data": [{"smiles": "Nc1nc(-c2cccc([N+](=O)[O-])c2)c(N=Nc2ccccc2[N+](=O)[O-])s1", "values": [{"measurement": "GI50", "setting": "[1]", "result": 5.39, "unit": "µM"}, {"measurement": "TGI", "setting": "[1]", "result": "> 100", "unit": "µM"}, {"measurement": "GI50", "setting": "[2]", "result": 42.8, "unit": "µM"}, {"measurement": "TGI", "setting": "[2]", "result": "> 100", "unit": "µM"}, {"measurement": "GI50", "setting": "[3]", "result": 4.04, "unit": "µM"}, {"measurement": "TGI", "setting": "[3]", "result": "> 100", "unit": "µM"}, {"measurement": "GI50", "setting": "[4]", "result": 1.44, "unit": "µM"}, {"measurement": "TGI", "setting": "[4]", "result": 3.61, "unit": "µM"}, {"measurement": "GI50", "setting": "[5]", "result": 3.01, "unit": "µM"}, {"measurement": "TGI", "setting": "[5]", "result": 14.4, "unit": "µM"}, {"measurement": "GI50", "setting": "[6]", "result": 3.62, "unit": "µM"}, {"measurement": "TGI", "setting": "[6]", "result": "> 100", "unit": "µM"}, {"measurement": "GI50", "setting": "[7]", "result": 1.94, "unit": "µM"}, {"measurement": "TGI", "setting": "[7]", "result": 14.4, "unit": "µM"}, {"measurement": "GI50", "setting": "[8]", "result": 2.13, "unit": "µM"}, {"measurement": "TGI", "setting": "[8]", "result": 5.2, "unit": "µM"}, {"measurement": "GI50", "setting": "[9]", "result": 3.41, "unit": "µM"}, {"measurement": "TGI", "setting": "[9]", "result": 31.1, "unit": "µM"}, {"measurement": "GI50", "setting": "[10]", "result": 2.11, "unit": "µM"}, {"measurement": "TGI", "setting": "[10]", "result": "> 100", "unit": "µM"}, {"measurement": "GI50", "setting": "[11]", "result": 2.55, "unit": "µM"}, {"measurement": "TGI", "setting": "[11]", "result": 9.04, "unit": "µM"}, {"measurement": "GI50", "setting": "[12]", "result": 53.5, "unit": "µM"}, {"measurement": "TGI", "setting": "[12]", "result": "> 100", "unit": "µM"}, {"measurement": "GI50", "setting": "[13]", "result": 1.43, "unit": "µM"}, {"measurement": "TGI", "setting": "[13]", "result": 2.98, "unit": "µM"}, {"measurement": "GI50", "setting": "[14]", "result": 59, "unit": "µM"}, {"measurement": "TGI", "setting": "[14]", "result": "> 100", "unit": "µM"}, {"measurement": "GI50", "setting": "[15]", "result": 1.47, "unit": "µM"}, {"measurement": "TGI", "setting": "[15]", "result": 2.89, "unit": "µM"}, {"measurement": "GI50", "setting": "[16]", "result": 1.64, "unit": "µM"}, {"measurement": "TGI", "setting": "[16]", "result": 3.2, "unit": "µM"}, {"measurement": "GI50", "setting": "[17]", "result": 8.34, "unit": "µM"}, {"measurement": "TGI", "setting": "[17]", "result": "> 100", "unit": "µM"}, {"measurement": "GI50", "setting": "[18]", "result": 0.285, "unit": "µM"}, {"measurement": "TGI", "setting": "[18]", "result": 3.63, "unit": "µM"}, {"measurement": "GI50", "setting": "[19]", "result": 2.91, "unit": "µM"}, {"measurement": "TGI", "setting": "[19]", "result": 5.95, "unit": "µM"}, {"measurement": "GI50", "setting": "[20]", "result": 1.51, "unit": "µM"}, {"measurement": "TGI", "setting": "[20]", "result": 5.73, "unit": "µM"}, {"measurement": "GI50", "setting": "[21]", "result": 7.62, "unit": "µM"}, {"measurement": "TGI", "setting": "[21]", "result": 30.5, "unit": "µM"}, {"measurement": "GI50", "setting": "[22]", "result": 1.69, "unit": "µM"}, {"measurement": "TGI", "setting": "[22]", "result": 3.29, "unit": "µM"}, {"measurement": "GI50", "setting": "[23]", "result": 6.05, "unit": "µM"}, {"measurement": "TGI", "setting": "[23]", "result": "> 100", "unit": "µM"}, {"measurement": "GI50", "setting": "[24]", "result": 1.83, "unit": "µM"}, {"measurement": "TGI", "setting": "[24]", "result": 6, "unit": "µM"}, {"measurement": "GI50", "setting": "[25]", "result": 48.7, "unit": "µM"}, {"measurement": "TGI", "setting": "[25]", "result": "> 100", "unit": "µM"}, {"measurement": "GI50", "setting": "[26]", "result": 22.7, "unit": "µM"}, {"measurement": "TGI", "setting": "[26]", "result": "> 100", "unit": "µM"}, {"measurement": "GI50", "setting": "[27]", "result": 2.35, "unit": "µM"}, {"measurement": "TGI", "setting": "[27]", "result": "> 100", "unit": "µM"}, {"measurement": "GI50", "setting": "[28]", "result": 3.43, "unit": "µM"}, {"measurement": "TGI", "setting": "[28]", "result": "> 100", "unit": "µM"}, {"measurement": "GI50", "setting": "[29]", "result": 2.25, "unit": "µM"}, {"measurement": "TGI", "setting": "[29]", "result": "> 100", "unit": "µM"}, {"measurement": "GI50", "setting": "[30]", "result": 1.27, "unit": "µM"}, {"measurement": "TGI", "setting": "[30]", "result": 2.75, "unit": "µM"}, {"measurement": "GI50", "setting": "[31]", "result": 2.04, "unit": "µM"}, {"measurement": "TGI", "setting": "[31]", "result": 6.33, "unit": "µM"}, {"measurement": "GI50", "setting": "[32]", "result": 4.79, "unit": "µM"}, {"measurement": "TGI", "setting": "[32]", "result": "> 100", "unit": "µM"}, {"measurement": "GI50", "setting": "[33]", "result": 2.8, "unit": "µM"}, {"measurement": "TGI", "setting": "[33]", "result": 14.1, "unit": "µM"}, {"measurement": "GI50", "setting": "[34]", "result": 2.9, "unit": "µM"}, {"measurement": "TGI", "setting": "[34]", "result": 8.6, "unit": "µM"}, {"measurement": "GI50", "setting": "[35]", "result": 14.8, "unit": "µM"}, {"measurement": "TGI", "setting": "[35]", "result": 38.7, "unit": "µM"}, {"measurement": "GI50", "setting": "[36]", "result": 0.865, "unit": "µM"}, {"measurement": "TGI", "setting": "[36]", "result": "> 100", "unit": "µM"}, {"measurement": "GI50", "setting": "[37]", "result": 1.46, "unit": "µM"}, {"measurement": "TGI", "setting": "[37]", "result": 3.26, "unit": "µM"}, {"measurement": "GI50", "setting": "[38]", "result": 8.73, "unit": "µM"}, {"measurement": "TGI", "setting": "[38]", "result": "> 100", "unit": "µM"}, {"measurement": "GI50", "setting": "[39]", "result": 18.8, "unit": "µM"}, {"measurement": "TGI", "setting": "[39]", "result": "> 100", "unit": "µM"}, {"measurement": "GI50", "setting": "[40]", "result": 4.18, "unit": "µM"}, {"measurement": "TGI", "setting": "[40]", "result": "> 100", "unit": "µM"}, {"measurement": "GI50", "setting": "[41]", "result": 63.4, "unit": "µM"}, {"measurement": "TGI", "setting": "[41]", "result": "> 100", "unit": "µM"}, {"measurement": "GI50", "setting": "[42]", "result": 4.84, "unit": "µM"}, {"measurement": "TGI", "setting": "[42]", "result": 61.3, "unit": "µM"}, {"measurement": "GI50", "setting": "[43]", "result": 4.66, "unit": "µM"}, {"measurement": "TGI", "setting": "[43]", "result": 32.7, "unit": "µM"}, {"measurement": "GI50", "setting": "[44]", "result": 3.42, "unit": "µM"}, {"measurement": "TGI", "setting": "[44]", "result": "> 100", "unit": "µM"}, {"measurement": "GI50", "setting": "[45]", "result": 20.7, "unit": "µM"}, {"measurement": "TGI", "setting": "[45]", "result": "> 100", "unit": "µM"}, {"measurement": "GI50", "setting": "[46]", "result": 2.32, "unit": "µM"}, {"measurement": "TGI", "setting": "[46]", "result": 5.84, "unit": "µM"}, {"measurement": "GI50", "setting": "[47]", "result": 1.54, "unit": "µM"}, {"measurement": "TGI", "setting": "[47]", "result": 3.01, "unit": "µM"}, {"measurement": "GI50", "setting": "[48]", "result": 5.57, "unit": "µM"}, {"measurement": "TGI", "setting": "[48]", "result": "> 100", "unit": "µM"}]}]}
